ChEMBL document CHEMBL1201862, “PubChem BioAssay data set” (2004)
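The compound was tested at five concentrations on cells cultured in 96-well plates, with a 48-hour exposure period. Abbreviation: GI50, concentration required for 50% inhibition of growth.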 Calls of active or inactive are those of the source. No stated cut-off is given here; in the data, active = GI50 up to about 1.1 µM and inactive = higher.

Key:
Test in all cases: NCI tumour cell line growth inhibition, 48 h
SK-MEL-5 = tested on: SK-MEL-5
NCI-H460 = tested on: NCI-H460
SW-620 = tested on: SW-620
IGROV-1 = tested on: IGROV-1
MDA-MB-231 = tested on: MDA-MB-231
SN12C = tested on: SN12C
HCT-116 = tested on: HCT-116
786-0 = tested on: 786-0
EKVX = tested on: EKVX
HOP-62 = tested on: HOP-62
NCI-H522 = tested on: NCI-H522
OVCAR-8 = tested on: OVCAR-8
SK-MEL-28 = tested on: SK-MEL-28
RXF 393 = tested on: RXF 393
NCI-H226 = tested on: NCI-H226
HCT-15 = tested on: HCT-15
OVCAR-5 = tested on: OVCAR-5
MDA-MB-435 = tested on: MDA-MB-435
A549 = tested on: A549
OVCAR-4 = tested on: OVCAR-4
UACC-257 = tested on: UACC-257
Malme-3M = tested on: Malme-3M
HL-60 = tested on: HL-60
SF-295 = tested on: SF-295
BT-549 = tested on: BT-549
SF-539 = tested on: SF-539
COLO 205 = tested on: COLO 205
A498 = tested on: A498
UACC-62 = tested on: UACC-62
SNB-75 = tested on: SNB-75
M14 = tested on: M14
SR = tested on: SR
ACHN = tested on: ACHN
U-251 = tested on: U-251
PC-3 = tested on: PC-3
SF-268 = tested on: SF-268
HOP-92 = tested on: HOP-92
T47D = tested on: T47D
CAKI-1 = tested on: CAKI-1
OVCAR-3 = tested on: OVCAR-3
SNB-19 = tested on: SNB-19
MCF7 = tested on: MCF7
MDA-N = tested on: MDA-N
DU-145 = tested on: DU-145
SK-MEL-2 = tested on: SK-MEL-2
KM12 = tested on: KM12
UO-31 = tested on: UO-31
HT-29 = tested on: HT-29
NCI/ADR-RES = tested on: NCI/ADR-RES
CCRF-CEM = tested on: CCRF-CEM
HCC 2998 = tested on: HCC 2998
NCI-H23 = tested on: NCI-H23

Compound: N#C[BH2-][n+]1cn(C2CC(O)C(COP(=O)(O)OC3CC(n4cnc5c(=O)[nH]c(N)nc54)OC3CO)O2)c2nc(N)[nH]c(=O)c21 (configuration not stated)
- GI50 (SK-MEL-5): > 100 µM (inactive)
- GI50 (NCI-H460): > 100 µM (inactive)
- GI50 (SW-620): > 100 µM (inactive)
- GI50 (IGROV-1): 22 µM (inactive)
- GI50 (MDA-MB-231): > 100 µM (inactive)
- GI50 (SN12C): > 100 µM (inactive)
- GI50 (HCT-116): > 100 µM (inactive)
- GI50 (786-0): > 100 µM (inactive)
- GI50 (EKVX): > 100 µM (inactive)
- GI50 (HOP-62): 84.7 µM (inactive)
- GI50 (NCI-H522): > 100 µM (inactive)
- GI50 (OVCAR-8): > 100 µM (inactive)
- GI50 (SK-MEL-28): > 100 µM (inactive)
- GI50 (RXF 393): 97.3 µM (inactive)
- GI50 (NCI-H226): 23.1 µM (inactive)
- GI50 (HCT-15): > 100 µM
- GI50 (OVCAR-5): > 100 µM (inactive)
- GI50 (MDA-MB-435): > 100 µM (inactive)
- GI50 (A549): > 100 µM (inactive)
- GI50 (OVCAR-4): > 100 µM (inactive)
- GI50 (UACC-257): > 100 µM (inactive)
- GI50 (Malme-3M): > 100 µM (inactive)
- GI50 (HL-60): > 100 µM (inactive)
- GI50 (SF-295): > 100 µM (inactive)
- GI50 (BT-549): 6.25 µM (inactive)
- GI50 (SF-539): > 100 µM (inactive)
- GI50 (COLO 205): > 100 µM (inactive)
- GI50 (A498): > 100 µM (inactive)
- GI50 (UACC-62): > 100 µM (inactive)
- GI50 (SNB-75): > 100 µM (inactive)
- GI50 (M14): > 100 µM (inactive)
- GI50 (SR): 1 µM (active)
- GI50 (ACHN): > 100 µM (inactive)
- GI50 (U-251): > 100 µM (inactive)
- GI50 (PC-3): 66.4 µM (inactive)
- GI50 (SF-268): > 100 µM (inactive)
- GI50 (HOP-92): > 100 µM (inactive)
- GI50 (T47D): > 100 µM (inactive)
- GI50 (CAKI-1): > 100 µM (inactive)
- GI50 (OVCAR-3): > 100 µM (inactive)
- GI50 (SNB-19): > 100 µM (inactive)
- GI50 (MCF7): 39.5 µM (inactive)
- GI50 (MDA-N): > 100 µM (inactive)
- GI50 (DU-145): > 100 µM (inactive)
- GI50 (SK-MEL-2): > 100 µM (inactive)
- GI50 (KM12): > 100 µM (inactive)
- GI50 (UO-31): > 100 µM (inactive)
- GI50 (HT-29): > 100 µM (inactive)
- GI50 (NCI/ADR-RES): > 100 µM (inactive)
- GI50 (CCRF-CEM): 20.5 µM (inactive)
- GI50 (HCC 2998): > 100 µM (inactive)
- GI50 (NCI-H23): > 100 µM (inactive)
